Measured values taken from patent publication US9956199B2, “Chromane-like cyclic prenylflavonoids for the medical intervention in neurological disorders” (priority 2011, dated 2018).
Entries after “also recorded” stand apart in the source; their conditions may differ.

Assays:
[1] = tested on: PC12 cells; experiment: PC12 cobalt-chloride stress test, LDH release; format: cell-based, rat; details: CoCl2 300 μM, 24 hours; compounds 10 μM, NGF 100 ng/ml; FIG. 7B
Procedure: (§1) For the neuroprotection assay PC12 cells were stressed with cobalt chloride 300 μM for 24 hours and the activity of Caspase 3/7 and LDH release were measured. NGF 50 ng/ml was used as a positive control for Caspase 3/7 activity and NGF 100 ng/ml was used as a positive control for LDH release.
(§2) For the PC12-CoCl2-Assay PC12 cells were used (ATCC: CRL-1721 ™). These cells were growing in RPMI supplemented with 10% Horse Serum (heat inactivated) (Sigma Aldrich, Taufkirchen, Germany), 5% Fetal Bovine Serum (Lonza, Wuppertal, Germany), 2.5% Penicillin/Streptomycin and Glutamine (PAA, Pasching, Austria) as adherent cultures when the plates are coated with Poly-L-ornithine ([…] in water) for at least one hour at 37° C. For passaging PC12-cells were resuspended with Accutase (PAA, Pasching, Austria) for 10 minutes at 37° C. once a week.
(§3) For all experiments cells were plated (quadruplicates) on Poly-L-ornithine-coated 96-well plates at a density of 10^4 cells per well. For Caspase 3/7-measurement cells were seeded in a white 96-well-plate to detect luminescence. As positive-control for neuroprotection Nerve Growth Factor (NGF) (50 ng/ml and 100 ng/ml) was used. To induce hypoxia CoCl2 (300 μM) was added to the cells after 20-24 hours. The control-treatment was compound 1a (ENDF1), compound 1b (ENDF3), compound 3a (ENDF2), ENDF4 or Osajin in the concentrations 1 μM and 10 μM in proliferation-media without CoCl2.
For LDH-release cells were centrifuged at 1050 rpm for 5 minutes. After 24 hours of stimulation, the supernatant was mixed in an equal amount with LDH-substrate and incubated in the dark for 30 minutes. Afterwards stop solution was added and absorbance was measured at 490 nm, the blank-values are subtracted.

[2] = tested on: PC12 cells; experiment: PC12 cobalt-chloride stress test, Caspase 3/7 activation; format: cell-based, rat; details: CoCl2 300 μM, 24 hours; compounds 10 μM, NGF 50 ng/ml; FIG. 7A
Procedure: as §1, §2, §3
For Caspase 3/7-activation Caspase 3/7 substrate was added to the cells in an equal amount 22 hours after stimulation. Plates are incubated for 2 hours at room temperature in the dark, luminescence was measured 24 hours after stimulation and the blank-values are subtracted.

[3] = tested on: Neuro-2a cells; experiment: neurite length in Neuro2a cells (GAP-43 staining); format: cell-based, mouse; details: 10 μM, 2 days, compared to control and RA/VPA
Procedure: For more precise analysis of neurite length Neuro2a cells were selected and stimulated for 2 days with RA/VPA as positive control and ENDFs in MEM+10% FCS. Immunocytochemical analysis was performed using GAP43 antibody which is known as a strong neuronal plasticity marker.
Neuro2a cells were grown in MEM with Earle's Salts (PAA, Pasching, Austria) containing 2 mM L-glutamine, 100 μg/ml Penicillin/Streptomycin (PAN Biotech GmbH, Aidenbach, Germany), 100 mM sodium pyruvate (Sigma-Aldrich, Taufkirchen, Germany) and 10% FCS (Lonza, Wuppertal, Germany).
The cells were passaged with 6 ml trypsin 0.5 mg/ml+EDTA 0.22 mg/ml (PAA, Pasching, Austria) two times per week. For analysis of neurite length Neuro2a cells were seeded on coverslips in a 24 well plate coated with Poly-L-ornithine and Laminin in a differentiation media MEM with Earle's Salts (PAA, Pasching, Austria) containing 2 mM L-glutamine, 100 μg/ml Penicillin/Streptomycin (PAN Biotech GmbH, Aidenbach, Germany), 100 mM sodium pyruvate (Sigma-Aldrich, Taufkirchen, Germany) and 1% FCS (Lonza, Wuppertal, Germany) and treated for 2 days with retinoic acid plus valproic acid and compound 1a (ENDF1) 10 μM, compound 1b (ENDF3) 10 μM, compound 3a (ENDF2) 10 μM, or ENDF4 10 μM. Cells were fixed as described in Example 18. Immunostaining was performed using GAP-43 1:500 (AbD Serotec, Oxford, UK).

[4] = tested on: MEF E16 cells; experiment: immunocytochemical staining for DCX and Map2ab in MEF cultures (neuronal differentiation); format: cell-based, mouse; details: 7 days; for number of DCX positive cells / number of DCX/Map2ab double positive cells: Neurobasal plus 1% FCS, 10 μM; for number of DCX positive cells: FIG. 3A; for number of DCX/Map2ab double positive cells: FIG. 3B
Procedure: Following the results from the Luciferase assay described in Example 17, the inventors examined the ability of compounds according to the invention and reference compounds to promote differentiation of MEF E16 cells, using immunocytochemical staining with DCX and Map2ab antibodies.
Compound 1a at 10 and 100 μM was analyzed for its effect on the expression of the neuronal specific markers DCX and Map2ab using primary fetal mouse brain derived cells stimulated in DMEM-KO media.
Mouse embryonic day 16 forebrain cells were prepared as described in Example 17. Before seeding the cells, glass-coverslips were coated and prepared. Glass-coverslips (13 mm) (Menzel GmbH, Braunschweig, Germany) were incubated in 1 M HCl at 65° C. overnight and stored in isopropanol until further use. Coverslips were put into 24-well test plates and air-dried. Subsequently coverslips were incubated for 1 h with 100 μg/ml Poly-L-ornithin solution at 37° C. After washing three times with sterile water coverslips were incubated with 5 μg/ml Laminin solution for 2 h. Immediately after removal of the Laminin solution cells were seeded (40.000 cells/well) in DMEM-KO plus supplement or in NB-B27 plus 1% FCS medium. One day later, cells had attached to the substrate. Cells were stimulated with the above-mentioned substances (in DMEM-KO plus supplement medium: 10 μM and 100 μM; in NB-B27 plus 1% FCS medium: 10 μM) for 3 or 7 days. In the 7 day group, medium including the substances was replaced after three days. Cultures were maintained at 37° C. in a humidified incubator with 5% CO2.
Cells were fixed with phosphate-buffered 4% paraformaldehyde (Sigma-Aldrich, Taufkirchen, Germany). […] The specimens were incubated overnight at 4° C. with the primary antibodies at the following dilutions in FSGB: rabbit anti Doublecortin (DCX) 1:500 (NEB, Frankfurt, Germany) and mouse anti-Map 2a+2b 1:400 (Sigma-Aldrich, Taufkirchen, Germany). After washing three times with FSGB, cells were incubated with the species-specific secondary antibodies, which were conjugated to fluorochromes, for 2 hours in the dark at room temperature. To remove unbound secondary antibodies, cells were washed again with PBS. Nuclear counterstaining was performed with 4′,6′-diamidino-2-phenylindole dihydrochloride hydrate (DAPI) at […] (Sigma Aldrich, Taufkirchen, Germany). Finally, cells were washed again three times with PBS and mounted on microscope slides using Prolong Antifade reagent (Invitrogen, Oreg., USA).
The immunostainings were examined using Olympus IX81 inverted research microscope and the software Volocity 5.3.1. To quantify the number of cells, five indiscriminately chosen visual fields per coverslip were selected under a focus of 40 times. The total number of cells (DAPI positive cells), the number of DCX positive, Map2ab positive, and DCX/Map2ab double positive cells was determined.

| SMILES | protection from CoCl2 induced LDH release (cell death) [1] | protection from CoCl2 induced Caspase 3/7 activity [2] | neurite length and branching [3] | number of DCX positive cells [4] | number of DCX/Map2ab double positive cells [4] | expression of the neuronal specific markers DCX and Map2ab (percentage of positive cells) ([4]; DMEM-KO medium, 10 and 100 μM, FIG. 2) |
| --- | --- | --- | --- | --- | --- | --- |
| COc1cc2c(c(O)c1C(=O)/C=C/c1ccc(O)cc1)CCC(C)(C)O2 [Compound 1b, (E)-1-(5-hydroxy-7-methoxy-2,2-dimethylchroman-6-yl)-3-(4-hydroxyphenyl)prop-2-en-1-one] | partially protected; also recorded: slightly decrease the LDH release | partially protected; also recorded: significant neuroprotective effect similar to NGF | longer growth of neurites as well as more elaborated branches; also recorded: strong and significant increase on neurite length and more elaborated branches | strongly enhanced the number of DCX positive cells | highest number of DCX and Map2ab double positive cells | – |
| COc1cc2c(c(O)c1C(=O)/C=C/c1ccc(O)cc1)C=CC(C)(C)O2 [Compound 1a, (E)-1-(5-hydroxy-7-methoxy-2,2-dimethyl-2H-chromen-6-yl)-3-(4-hydroxyphenyl)prop-2-en-1-one] | partially protected; also recorded: slightly decrease the LDH release | partially protected; also recorded: significant neuroprotective effect similar to NGF | longer growth of neurites as well as more elaborated branches; also recorded: strong and significant increase on neurite length and more elaborated branches | most vigorous effect | highest number of DCX and Map2ab double positive cells | elevated number of DCX positive and of MAP2ab positive cells; also recorded: enhances the expression of the neuronal specific markers DCX and Map2ab |
